Reference: the NIST ThermoML archive (doi:10.1021/je400803f)

Experiment: xn = mol fraction of the nth substance listed
Settings: 101 kPa, Liquid, Vibrating tube method

CCCCN(C=O)CCCC [N,N-dibutylformamide] + CCCC[N+]1(C)CCCC1.FC(F)(F)C(F)(F)[P-](F)(F)(F)(C(F)(F)C(F)(F)F)C(F)(F)C(F)(F)F
mass density [kg/m3]
Settings | 293.15 K | 298.15 K | 303.15 K | 308.15 K | 313.15 K | 318.15 K | 323.15 K
x2 = 0.0351 | 928.01 | 923.97 | 919.87 | 915.81 | 911.67 | 907.43 | 903.16
x2 = 0.0697 | 972.58 | 968.41 | 964.18 | 960.06 | 955.82 | 951.45 | 947.14
x2 = 0.0998 | 1008.79 | 1004.57 | 1000.33 | 996.06 | 991.74 | 987.31 | 982.93
x2 = 0.1498 | 1064.17 | 1059.81 | 1055.39 | 1051.03 | 1046.54 | 1042.09 | 1037.62
x2 = 0.1994 | 1114.29 | 1109.89 | 1105.41 | 1100.9 | 1096.39 | 1091.73 | 1087.01
x2 = 0.2999 | 1204.19 | 1199.58 | 1194.89 | 1190.17 | 1185.45 | 1180.61 | 1175.67
x2 = 0.4003 | 1281.29 | 1276.52 | 1271.65 | 1266.78 | 1261.89 | 1256.88 | 1251.71
x2 = 0.499 | 1347.44 | 1342.55 | 1337.52 | 1332.49 | 1327.52 | 1322.34 | 1317.03
x2 = 0.5993 | 1406.59 | 1401.54 | 1396.37 | 1391.2 | 1386.12 | 1380.87 | 1375.47
x2 = 0.6799 | 1449.07 | 1443.87 | 1438.69 | 1433.45 | 1428.23 | 1422.89 | 1417.48
x2 = 0.7754 | 1494.51 | 1489.34 | 1483.96 | 1478.61 | 1473.39 | 1467.94 | 1462.42
x2 = 0.8021 | 1506.51 | 1501.2 | 1495.89 | 1490.51 | 1485.21 | 1479.75 | 1474.28
x2 = 0.9011 | 1548.52 | 1543.24 | 1537.81 | 1532.31 | 1526.89 | 1521.4 | 1515.91
x2 = 0.949 | 1568.08 | 1562.74 | 1557.33 | 1551.79 | 1546.31 | 1540.77 | 1535.23
